Test results reported in patent US6756399B2, “Use of lipoxygenase inhibitors and PPAR ligands as anti-cancer therapeutic and intervention agents” (The United States of America as represented by the …, priority 2001, dated 2004).
Entries after “also recorded” stand apart in the source; their conditions may differ.

Tests used:
H345 cell line = test: Apo-1 Caspase 3/7 apoptosis assay, H345; type: cell-based
Experimental: (§1) Lung cancer cell lines used for PPAR analysis included A549, H510, H345, and N417. The FLAP inhibitor: MK886 and COX inhibitor: indomethacin, and combinations thereof, were used as AA inhibitors. PPARs for the analysis included PGJ2 (γ ligand); ciglitazone (γ agonist); LY171882 (γ receptor activator); and WY 14643 (α activator). In order to analyze PPARs in lung cancer cells, growth inhibition (MTT, BrdU); apoptosis (Caspase 3/7 and M30 IHC); and mRNA Northern analyses were performed.
(§2) Apoptosis was determined at particular time points using the Apo-1Caspase 3/7 assay.

[1] = system: A549, H510, H345, and N417 lung cancer cell lines; test: Growth inhibition (MTT, BrdU) in lung cancer cell lines; type: cell-based; settings: all tested cell lines (A549, H510, H345, N417)
Experimental: as §1

A549 cell line [2] = test: M30 immunohistochemistry for apoptosis, A549; type: cell-based
Experimental: as §1
(§3) M30 Immunohistochemistry was performed to test for apoptosis in the various lung cancer cell lines. […] Apoptosis was also observed in the H345 and N417 cell lines, but PPAR induction was low and no significant increase in PPAR protein expression was observed when tested in combination with PGJ2. […] In summary, combinations of FLAP inhibitors, cyclooxygenase inhibitors, and PPARγ ligands generally had additive effects in reducing lung cancer cell line growth; this generally correlated with measures of enhanced apoptosis.

[3] = system: T47D breast cancer cell line; test: Proliferation assay, breast cancer cell line T47D; type: cell-based; settings: compared to vehicle control
Experimental: (§4) Breast cancer cell line ZR-75 was grown in the presence of 5 μM inhibitors for 24 and 48 hrs, total RNA was isolated and RT-PCR performed for PPARα and PPARγ using specific primers. Results are presented as percent of control after normalizing with the actin values. The experiment was repeated three times. The error bars indicate standard deviation. […] All values were determined by assessment of % growth inhibition calculated from the optical density value, with a minimum of 6 replicates from at least three different experiments per cell line. The ligands included WY-14643 (open circles); LY 171883 (closed circles); fenofibrate (triangles); clofibrate (diamonds).
(§5) (A) Northern blot analysis for PPARγ (1.8 Kb), of breast cancer cell line T47D treated with 5 μM MK 886 for 6, 12, 24 hrs and untreated control. RNA was isolated as described in Methods, and […] of total RNA was loaded per lane. Ethidium bromide staining of 28S rRNA was used to check for equal loading and RNA integrity (lower panel). (B) RNA isolated from T47D cells treated with 5 μM MK 886 for different time periods were subjected to RT-PCR using specific primers for PPARγ. The PCR products were normalized to actin gene and 18S. PCR products were quantified by densitometry and the data points presented are expressed as percent of control, and represent mean and SEM of three experiments. […]

[4] = system: ZR-75 breast cancer cell line; test: Proliferation assay, breast cancer cell line ZR-75; type: cell-based; settings: ZR-75, compared to vehicle control
Experimental: as §4
Cell lines used in the study were obtained from the American Type Culture Collection (Rockville, Md.). They included MCF-7, ZR-75, T47 D; SKBR-3, and MB-231. The cells were maintained in RPMI-1640, or MEM Zinc option medium, supplemented with 5% fetal bovine serum (FBS), penicillin (50 units/ml) and streptomycin (50 μg/ml) (Life Technologies, Gaithersburg, Md.), in a humidified atmosphere of 95% air and 5% CO2 at 37° C.

H510 cell line [5] = test: M30 immunohistochemistry for apoptosis, H510; type: cell-based
Experimental: as §1, §3

PPARγ [6] = test: Northern analysis, PPARγ mRNA in A549; type: cell-based
Experimental: as §1
(§6) Northern analysis was performed with untreated cells and cells treated with AA inhibitors: MK886, indomethacin, or the combination of MK886 and indomethacin. […] There was also no expression after 24 hours of exposure to AA inhibitors, confirming previous Northern analyses. […] In the H510 cell line, no expression for PPARγ was observed.

15-HETE = 15-HETE production after exposure to FLAP inhibitor; type: cell-based; settings: in response to exposure to MK 886
A549 cell line [7] = test: Apo-1 Caspase 3/7 apoptosis assay, A549; type: cell-based
Experimental: as §1, §2

PPARγ [8] = test: RT-PCR for PPARγ mRNA in breast cancer cell line ZR-75; type: cell-based; settings: ZR-75, 5 μM, 24 and 48 hours
Experimental: as §4
(§7) Cells were grown for 24 hrs or 48 hrs in the presence or absence of inhibitors at 5 μM concentration. RNA was isolated using the Trizol method (Life Technologies, Gaithersburg, Md.), and RT-PCR was performed using specific primers for PPAR and actin control genes.
(§8) Forward (F) and reverse (R) primers used to detect PPAR cDNAs were: […]
(§9) The ethidium bromide stained image was digitized and the optical density calculated using the NIH Image program. Values were normalized with the actin value obtained with commercially available primers (Clontech Inc., Palo Alto, Calif. ). These experiments were repeated three times.

N417 cell line = test: Apo-1 Caspase 3/7 apoptosis assay, N417; type: cell-based
Experimental: as §1, §2

PPARγ [9] = test: Northern blot analysis for PPARγ in T47D cells; type: cell-based, human; settings: 5 μM MK886, 0, 6, 12, 24 hours
Experimental: as §5, with “experiments. (C) Breast cancer cell line T47D, was incubated with various concentrations of MK886 (circles) and then analyzed using a proliferation assay. After 12 hr incubation, the inhibitors were removed and replaced by media alone (open circles), or media with 4 μM LY 171883 (closed circles). LY 171883 in the presence of media without the FLAP inhibitor is shown (stars).” for “experiments.”
After treatment for the indicated time points (5 μM MK886 at 0, 6, 12, 24 hours), cells were washed with PBS and total RNA was extracted using the RNeasy Mini Kit (QUIAGEN Inc., Valencia, Calif.). […] Equal loading and integrity of RNA was monitored by ethidium bromide staining (FIG. 2A). […]

PPARγ [10] = test: Northern analysis, PPARγ mRNA in H345; type: cell-based
Experimental: as §1, §6

H510 cell line [11] = test: Apo-1 Caspase 3/7 apoptosis assay, H510; type: cell-based
Experimental: as §1, §2

PPARα [12] = test: RT-PCR for PPARα mRNA in breast cancer cell line ZR-75; type: cell-based; settings: ZR-75, 5 μM, 24 and 48 hours
Experimental: as §4, §7, §8, §9

PPARδ = test: Northern analysis, PPARδ mRNA in A549; type: cell-based
Experimental: as §1, §6

PPARα [13] = test: Northern analysis, PPARα mRNA in A549; type: cell-based
Experimental: as §1, §6

PPARγ [14] = test: Semi-quantitative RT-PCR for PPARγ in T47D cells; type: cell-based; settings: 5 μM MK886, different time periods
Experimental: (A) Northern blot analysis for PPARγ (1.8 Kb), of breast cancer cell line T47D treated with 5 μM MK 886 for 6, 12, 24 hrs and untreated control. RNA was isolated as described in Methods, and […] of total RNA was loaded per lane. Ethidium bromide staining of 28S rRNA was used to check for equal loading and RNA integrity (lower panel). (B) RNA isolated from T47D cells treated with 5 μM MK 886 for different time periods were subjected to RT-PCR using specific primers for PPARγ. The PCR products were normalized to actin gene and 18S. PCR products were quantified by densitometry and the data points presented are expressed as percent of control, and represent mean and SEM of three experiments. (C) Breast cancer cell line T47D, was incubated with various concentrations of MK886 (circles) and then analyzed using a proliferation assay. After 12 hr incubation, the inhibitors were removed and replaced by media alone (open circles), or media with 4 μM LY 171883 (closed circles). LY 171883 in the presence of media without the FLAP inhibitor is shown (stars). After an additional 24 hr incubation time, the experiments were terminated. All values were determined by assessment of % growth inhibition calculated from the optical density value, with a minimum of 6 replicates from at least three different experiments. The error bars indicate standard deviation. […]

## CC1(COc2ccc(CC3SC(=O)NC3=O)cc2)CCCCC1 (racemic) [ciglitazone, (±)-5-[4-(1-Methylcyclohexylmethoxy)-benzyl] thiazolidine-2,4-dione]
H345 cell line
  apoptosis (Caspase 3/7): induced apoptosis
[1]
  growth of lung cancer cell lines: reduced growth in a dose dependent manner

## CCCc1c(OCCCCc2nnn[nH]2)ccc(C(C)=O)c1O [LY 171883]
A549 cell line [2]
  apoptosis (M30 immunohistochemistry): Some apoptosis also occurred
[3]
  breast tumor cell growth: dose dependent growth reduction
H345 cell line
  apoptosis (Caspase 3/7): neither LY171882 or WY 14643 (α activator) induced apoptosis
[4]
  breast tumor cell growth: dose dependent growth reduction

## CC(C)c1ccc2c(c1)c(SC(C)(C)C)c(CC(C)(C)C(=O)O)n2Cc1ccc(Cl)cc1 [MK886, 3-[1-(4-chlorobenzyl)-3-t-butyl-thio-5-isopropylindol-2-yl]-2,2-dimethylpropanoic acid]
H510 cell line [5]
  apoptosis (M30 immunohistochemistry): apoptosis in the H510 cell line was observed
PPARγ [6]
  PPARγ mRNA (Northern): Up-regulation of PPARγ
15-HETE
  15-HETE production: large increase
A549 cell line [7]
  apoptosis (Caspase 3/7): increased apoptosis
H345 cell line
  apoptosis (Caspase 3/7): induced apoptosis
PPARγ [8]
  PPARγ expression: up-regulation
[1]
  growth of lung cancer cell lines: inhibited all tested cell lines in a dose dependent manner ranging from 0.25 to 2.0 μM
N417 cell line
  apoptosis (Caspase 3/7): two fold increase in apoptosis
PPARγ [9]
  PPARγ expression (Northern blot): induction of PPARγ is evident within six hours; also recorded: PPARγ expression levels increase
PPARγ [10]
  PPARγ expression (Northern): PPARγ expression was induced
H510 cell line [11]
  apoptosis (Caspase 3/7): two fold induction of apoptosis
PPARα [12]
  PPARα expression: up-regulation
PPARδ
  PPARδ mRNA (Northern): some mRNA observed for PPARδ
PPARα [13]
  PPARα mRNA (Northern): no mRNA for PPARα
PPARγ [14]
  PPARγ induction (semi-quantitative RT-PCR): induction of PPARγ is more protracted

## CC(Cc1ccc(O)c(O)c1)C(C)Cc1ccc(O)c(O)c1 (stereo not drawn) [NDGA, Nordihydroguaiaretic acid]
PPARγ [8]
  PPARγ expression: up-regulation
PPARα [12]
  PPARα expression: up-regulation

## CCCCC/C=C/C=C1/C(=O)C=C[C@@H]1C/C=C\CCCC(=O)O [PGJ2, 15-Deoxy-Δ^12,14-Prostaglandin J2]
H510 cell line [5]
  apoptosis (M30 immunohistochemistry): apoptosis in the H510 cell line was observed
PPARγ [6]
  PPARγ mRNA (Northern): mRNA decreases to those levels observed with control
[1]
  growth of lung cancer cell lines: reduced growth in a dose dependent manner
PPARγ [10]
  PPARγ expression (Northern): down regulated mRNA

## CCOC(=O)C(C)(C)Oc1ccc(Cl)cc1 [clofibrate, 2-(4-chlorophenoxy)-2-methylpropanoic acid ethyl ester]
[3]
  breast tumor cell growth: dose dependent growth reduction
[4]
  breast tumor cell growth: dose dependent growth reduction

## COc1ccc2c(c1)c(CC(=O)O)c(C)n2C(=O)c1ccc(Cl)cc1 [indomethacin]
H510 cell line [5]
  apoptosis (M30 immunohistochemistry): apoptosis in the H510 cell line was observed
PPARγ [6]
  PPARγ mRNA (Northern): Up-regulation of PPARγ
[1]
  growth of lung cancer cell lines: no effect on growth, even at a concentration of greater than 10 μM
H510 cell line [11]
  apoptosis (Caspase 3/7): two fold induction of apoptosis
